# Laboratory results published in US8461118B2, “Lytic peptides having anti-proliferative activity against prostate cancer cells” (Tuskegee University, priority 2011, dated 2013).
# Several values for one entry are separate records, joined by “and”; a condition that tells them apart may be missing. Identical values can stand only once. Entries after “also recorded” stand apart in the source; their conditions may differ. Ends that are not written are not given here.
# How the values were obtained:
# [1] = tested on: PC-3 cells; format: cell-based, human; conditions: for IC50: MTT, 72 h exposure
# From the text: To evaluate the efficacy of these peptides in inhibiting prostate cancer, a prostate cancer progression model was followed that utilized several different cell lines in various experiments as described herein to form this model, including the known cell lines DU-145, PC-3, LNCaP, and hPrEC. […] This cell line has both LHRH-R and epidermal growth factor receptors (“EGFR”), and produces the EGFR ligands, transforming growth factor α (TGF-α) and EGF. The androgen-unresponsive PC-3 cell line is derived from a human bone metastasis of a grade IV prostatic adenocarcinoma, while the androgen-responsive LNCaP cell line is derived from a human lymph node metastasis. For all experiments described herein, normal primary human prostate epithelial cells (“hPrEC”) were obtained from Clonetics (Lonza Inc., Walkersville, Md.), while the other cell lines were purchased from ATCC and maintained in T-media (Gibco Invitrogen, CA) supplemented with 10% fetal bovine serum (FBS) (Gibco Invitrogen, CA) and 1% penicillin/streptomycin (Cellgro Mediatech, Inc., VA).
# In the various experiments described below, unless otherwise noted, the cytotoxicity of the various peptides when measured was evaluated using the methylthiazol tetrazolium (“MTT”) assay (Sigma Aldrich, MO), which determines the number of viable cells from the formazan crystals produced by metabolic activity. The cells in such cytotoxicity experiments were plated in 96-well plates at 2.5×10^3 cells/well, and were allowed to reattach overnight. They were then exposed to the test lytic peptides (1-20 μM) for 72 h. The MTT reagent [3-(4,5-dimethylthiazol-2-yl)-2,5-diphenyltetrazolium bromide], 50 μL) in T-media was added to each well, and the plates were incubated for 2 h. The supernatant media was aspirated, and formazan crystals were dissolved with […] dimethylsulfoxide per well at 37° C. for 10 min. The quantity of solublized formazan per well was determined by a Spectromax plate reader at 540 nm (Molecular Devices, CA). Each assay was performed at least three times with six replicates per data point.
# For all experiments, unless otherwise noted, statistics were performed with Microsoft Excel. Independent Student's t-test was utilized to determine statistical differences between experimental subjects and control subjects. The IC50 values were derived through regression analysis of the continuous data by cubic spline interpolation utilizing Aabel™ (Gigawiz Ltd. Co., OK), a software application that integrates statistics (inferential and multivariate) with graphical representation.
# To determine the effectiveness of JCH and JC21 with or without mLHRH conjugates, androgen-independent, highly metastatic PC-3 cells were exposed to the peptides in increasing concentrations (0-20 μM).
# For this experiment, IC50 values were determined by interpolation of three individual experiments performed in quadruplicate at 50% cell death. All values were reported in the table of FIG. 2A were determined to be significant compared to control p<0.001. In the table, “n.d.” serves as an abbreviation for “not determined,” as tests were not conducted for JHC and JC21 against LNCaP and DU-145.
# [2] = tested on: PC-3 cells; assay: PC-3 growth recovery after 24 h peptide pretreatment; format: cell-based, human; conditions: 24 h pretreatment JCHmLHRH 5 μM or JC21mLHRH 8 μM, 3 days
# Protocol: This experiment was performed to determine whether cancerous cells could recover after JCHmLHRH or JC21mLHRH exposure. PC-3 cell cultures were exposed to JCHmLHRH (5 μM) or JC21mLHRH (8 μM) for 24 hours. Growth was measured over a 3-day period. Growth of pre-treatment and post-treatment groups were compared over time.
# [3] = tested on: RFP-PC-3 cells; assay: Co-culture differential fluorescence, RFP-PC-3 cells; format: cell-based, human; conditions: JCHmLHRH 5 μM or JC21mLHRH 8 μM, 12 hr
# Protocol: In the various experiments described below, unless otherwise noted, co-cultures were prepared and utilized as described by Yates et al. (see Yates C, Shepard C R, Papworth G, Dash A, Beer Stolz D, Tannenbaum S, et al., Novel three-dimensional organotypic liver bioreactor to directly visualize early events in metastatic progression, Adv Cancer Res, 2007; 97:225-46; and Yates C, Shepard C R, Stolz D B, Wells A., Co-culturing human prostate carcinoma cells with hepatocytes leads to increased expression of E-cadherin, Br J Cancer 2007; 96:1246-52), with certain modifications as noted herein. The co-cultures consisted of 50,000 cells/cm^2 of GFP-HS-27a bone marrow stromal cells and 2000 cells/cm^2 of red fluorescent protein PC-3 prostate cancer cells (“RFP-PC-3”), and were maintained in Dulbecco's modified Eagle medium, and cell death was monitored in real-time (as described above) by differential fluorescence. To determine relative intensity, the total intensity area of each image as well as the threshold intensity for each channel was measured utilizing Metamorph Imaging Software (Molecular Devices, Inc., CA), and the significance between the two intensities was then analyzed statistically. All quantitative data was normalized to each control image. […]
# [4] = tested on: normal primary hPrEC cells; assay: MTT cytotoxicity on normal primary prostate epithelial cells; format: cell-based, human; conditions: 0-20 μM
# From the text: (§1) To evaluate the efficacy of these peptides in inhibiting prostate cancer, a prostate cancer progression model was followed that utilized several different cell lines in various experiments as described herein to form this model, including the known cell lines DU-145, PC-3, LNCaP, and hPrEC. […] This cell line has both LHRH-R and epidermal growth factor receptors (“EGFR”), and produces the EGFR ligands, transforming growth factor α (TGF-α) and EGF. The androgen-unresponsive PC-3 cell line is derived from a human bone metastasis of a grade IV prostatic adenocarcinoma, while the androgen-responsive LNCaP cell line is derived from a human lymph node metastasis. […]
# (§2) In the various experiments described below, unless otherwise noted, the cytotoxicity of the various peptides when measured was evaluated using the methylthiazol tetrazolium (“MTT”) assay (Sigma Aldrich, MO), which determines the number of viable cells from the formazan crystals produced by metabolic activity. […] The quantity of solublized formazan per well was determined by a Spectromax plate reader at 540 nm (Molecular Devices, CA). […]
# [5] = tested on: GFP-HS-27a bone marrow stromal cells; assay: Co-culture differential fluorescence, GFP-HS-27a bone marrow stromal cells; format: cell-based; conditions: for relative intensity of GFP-HS-27a cells: JCHmLHRH 5 μM or JC21mLHRH 8 μM, 12 hr
# Protocol: In the various experiments described below, unless otherwise noted, co-cultures were prepared and utilized as described by Yates et al. (see Yates C, Shepard C R, Papworth G, Dash A, Beer Stolz D, Tannenbaum S, et al., Novel three-dimensional organotypic liver bioreactor to directly visualize early events in metastatic progression, Adv Cancer Res, 2007; 97:225-46; and Yates C, Shepard C R, Stolz D B, Wells A., Co-culturing human prostate carcinoma cells with hepatocytes leads to increased expression of E-cadherin, Br J Cancer 2007; 96:1246-52), with certain modifications as noted herein. The co-cultures consisted of 50,000 cells/cm^2 of GFP-HS-27a bone marrow stromal cells and 2000 cells/cm^2 of red fluorescent protein PC-3 prostate cancer cells (“RFP-PC-3”), and were maintained in Dulbecco's modified Eagle medium, and cell death was monitored in real-time (as described above) by differential fluorescence. To determine relative intensity, the total intensity area of each image as well as the threshold intensity for each channel was measured utilizing Metamorph Imaging Software (Molecular Devices, Inc., CA), and the significance between the two intensities was then analyzed statistically. All quantitative data was normalized to each control image.
# For this experiment, RFP-PC-3 cell cultures, GFP-HS-27a cell cultures, and RFP-PC-3/GFP-HS-27a cell co-cultures were exposed to JCHmLHRH (5 μM) and JC21mLHRH (8 μM), and the various cultures were monitored by differential immunofluorescence over 12 h period. Images comprising black and white photographs of the cultures at the 0 hr, 6 hr, and 12 hr marks following administration of JCHmLHRH and JC21mLHRH are shown in FIG. 5C and FIG. 5D, respectively. Two trials of this experiment were conducted with similar results, and the photographs of FIG. 5C and FIG. 5D are illustrative of the results of both trials. […] Further, the RFP-PC-3/GFP-HS-27a co-culture images at the 6 hr and 12 hr marks largely resemble the corresponding time images for GFP-HS-27a cultures in relative intensity.
# FIG. 5E in turn provides a chart showing the relative intensity of total areas measured under differential fluorescence of the co-culture cells after they were exposed to JCHmLHRH and JC21mLHRH in this experiment.
# [6] = tested on: PC-3 cells; assay: Real-time imaging, trypan blue exclusion and Annexin V in PC-3 cells; format: cell-based, human
# Protocol: In the various experiments described below, unless otherwise noted, real-time imaging of cell cultures was performed utilizing an Olympus DSU (Disk Scanning Units) Confocal microscope (Olympus America Inc., PA). The subject cells were maintained in 5% CO2 at 37° C. in an incubation chamber (Pathology Devices, Inc., MD). Images were taken every 15 min and processed utilizing MetaMorph Imaging Software (Molecular Devices, CA).
# Although the mechanism associated with the anti-tumor activity of lytic peptides has not been defined, without wishing to be limited to any mechanism of action, it is believed that direct interaction of the present lytic peptides with the cell membrane causes the electrochemical potential to collapse, resulting in cell death. To investigate the potential mechanism of action, a qualitative approach utilizing real-time imaging was employed in conjunction with monitoring of a classic marker of apoptosis, Annexin V. Since the mechanism of death was unknown, real-time imaging was employed for cells in a 5% CO2 and temperature-regulated (37° C.) chamber to monitor the effects of JC21mLHRH and JCHmLHRH on PC-3 cellular responses.
# PC-3 cell cultures were exposed to JCHmLHRH (5 μM) or JC21mLHRH (8 μM) and imaged continuously for 24 h with time-lapse microscopy. FIG. 5A comprises eight black and white photographs depicting real-time images of PC-3 cells after treatment with lytic peptides JCHmLHRH (5 μM) or JC21mLHRH (8 μM) taken with time-lapse microscopy under 5% CO2 and 37° C. at 0, 3, 6, and 12 hours post administration. […] There were different modes of action by which JCHmLHRH and JC21mLHRH caused cell death.
# FIG. 5B is a graph reporting experimental results for cell percentage corresponding to the images of FIG. 5A. Quantification of total cell number and cell viability was determined by trypan blue exclusion after exposure to JCHmLHRH (5 μM) or JC21mLHRH (8 μM) over a 24 h period. The results shown in the graph of FIG. 5B are representative of three individual experiments performed in triplicate (where the horizontal line at approximately 60% in the graph indicates significance at p<0.0001). The data indicates a rapid mode of action was observed by both the real-time imaging and trypan blue staining mechanisms, with nearly 80% cell death after only 6 h of treatment and approximately 100% cell death after the 24 h period.
# [7] = tested on: PC-3 cells treated with siRNA-LHRH-R; assay: Peptide sensitivity of PC-3 cells after siRNA-LHRH-R knockdown (trypan blue exclusion); format: cell-based, human; conditions: 100 nM siRNA-LHRH-R
# Protocol: To more firmly establish the significance of the mLHRH sequence on peptide activity, PC-3 cells were treated with siRNA-LHRH at 50 nM and 100 nM concentrations and assayed LHRH levels by immunofluorescence. In this Experiment, PC-3 cells were treated with siRNA-LHRH-R at 50 nM and 100 nM, and compared to control. For this experiment, a total of about 2×10^5 cells, equaling approximately 60-70% confluency, were plated in six-well plates. The LHRH-R siRNA (Santa Cruz, Calif.) was diluted in […] of Opti-MEM (Invitrogen, CA). A […] aliquot of Lipofectamine 2000 (Invitrogen, CA) was diluted in […] of Opti-MEM and incubated for 5 min at room temperature. The diluted siRNA and Lipofectamine 2000 were mixed according to manufacturer's directions and incubated for 20 min at room temperature. The resulting complexes were added to each well and incubated for 24 h. […]
# LHRH-R expression was determined by immuno-fluorescence staining with 4′,6-diamidino-2-phenylindole (“DAPI”) utilizing anti-LHRH-R antibody (Lab Vision, CA) and Alexa 488 secondary antibody (Invitrogen, CA).
# For purposes of comparison, PC-3 cells were treated with JC21 mLHRH or JCHmLHRH in the presence or absence of 100 nM siRNA-LHRH-R or siRNA-scramble treated cells. Cell viability was determined by trypan blue exclusion, and the results are depicted in the graph of FIG. 3C.
# [8] = tested on: LNCaP cells; assay: MTT cytotoxicity assay, LNCaP prostate cancer cells; format: cell-based, human; conditions: 72 h exposure
# From the text: as §1, §2
# [9] = tested on: DU-145 cells; assay: MTT cytotoxicity assay, DU-145 prostate cancer cells; format: cell-based, human; conditions: 72 h exposure
# From the text: as §1, §2
substance,measurement,setting,value
AFKKAFKKAKKAFKKAFKAFAFA [JC21],IC50,[1],9.25 µM
FALALKALKKALKKLKKALKKAL [JCH],IC50,[1],6.67 µM
QHWSWGLRPGAFKKAFKKAKKAFKKAFKAFAFA [JC21mLHRH],cell growth after pretreatment,[2],completely inhibited cell growth
same,relative intensity of RFP-PC-3 cells,[3],approaches zero
same,effect on hPrEC cell proliferation / toxicity,[4],neither JCHmLHRH nor JC21mLHRH causes appreciable decreases in hPrEC cell proliferation; also recorded: nontoxic
same,toxicity to bone marrow stromal cells in co-culture,[5],nontoxic
same,relative intensity of GFP-HS-27a cells,[5],only decreases slightly
same,morphological changes in cells,"[6]; PC-3 cells, 3 h exposure, real-time imaging",morphological changes
same,cell death,"[6]; PC-3 cells, JCHmLHRH 5 μM or JC21mLHRH 8 μM, 6 h of treatment",~80%
same,cell death,"[6]; PC-3 cells, JCHmLHRH 5 μM or JC21mLHRH 8 μM, after the 24 h period",approximately 100%
same,mode of cell death observed under microscope,"[6]; PC-3 cells, JCHmLHRH 5 μM or JC21mLHRH 8 μM, time-lapse microscopy",condensing of the cellular and nuclear membrane without bursting
same,expression of apoptotic marker Annexin V,[6]; exposed PC-3 cells,did not observe expression of apoptotic marker Annexin V
same,decrease in sensitivity to peptide on depletion of LHRH levels,[7],50%
QHWSWGLRPGFALALKALKKALKKLKKALKKAL [JCHmLHRH],IC50,[8],4.36 µM and 4.4 µM
same,IC50,[1],4.22 µM and 4.4 µM
same,IC50,[9],4.81 µM and 4.8 µM
same,effect on hPrEC cell proliferation / toxicity,[4],neither JCHmLHRH nor JC21mLHRH causes appreciable decreases in hPrEC cell proliferation; also recorded: nontoxic
same,toxicity to bone marrow stromal cells in co-culture,[5],nontoxic
same,relative intensity of GFP-HS-27a cells,[5],only decreases slightly
"mLHRH: modified LHRH binding sequence, tryptophan in place of tyrosine, QHWSWGLRPG (ends and bridges not checked; listed as Homo sapiens)",cell death at higher concentrations,[1]; mLHRH sequence alone,failed to cause 50% cell death
same,concentration causing a decrease in cell proliferation of PC-3 cells (as low as),[1]; mLHRH sequence alone,1 µM
